{
  "source": "ChEMBL document CHEMBL5653631",
  "about": "“A Potent and Selective ULK1 Inhibitor Suppresses Autophagy and Sensitizes Cancer Cells to Nutrient Stress” (iScience, 2018)",
  "key": {"[1]": {"target": "T1, Dual specificity mitogen-activated protein kinase kinase 6 (Homo sapiens) (UniProt P52564)", "T1 sequence (whole entry)": "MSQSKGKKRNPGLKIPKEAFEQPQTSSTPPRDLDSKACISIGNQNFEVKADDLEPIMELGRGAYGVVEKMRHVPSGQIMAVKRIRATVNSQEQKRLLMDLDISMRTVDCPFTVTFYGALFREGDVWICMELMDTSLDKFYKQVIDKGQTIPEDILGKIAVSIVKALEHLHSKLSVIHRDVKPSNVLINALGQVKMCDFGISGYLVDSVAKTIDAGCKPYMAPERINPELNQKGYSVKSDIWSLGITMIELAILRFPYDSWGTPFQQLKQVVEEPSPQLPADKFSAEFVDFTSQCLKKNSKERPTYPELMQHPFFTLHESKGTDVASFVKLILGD", "test": "Inhibition of human recombinant MAP2K6 at 40 nM related to control ULK1"}, "[2]": {"target": "T2, NUAK family SNF1-like kinase 2 (Homo sapiens) (UniProt Q9H093)", "T2 sequence (whole entry)": "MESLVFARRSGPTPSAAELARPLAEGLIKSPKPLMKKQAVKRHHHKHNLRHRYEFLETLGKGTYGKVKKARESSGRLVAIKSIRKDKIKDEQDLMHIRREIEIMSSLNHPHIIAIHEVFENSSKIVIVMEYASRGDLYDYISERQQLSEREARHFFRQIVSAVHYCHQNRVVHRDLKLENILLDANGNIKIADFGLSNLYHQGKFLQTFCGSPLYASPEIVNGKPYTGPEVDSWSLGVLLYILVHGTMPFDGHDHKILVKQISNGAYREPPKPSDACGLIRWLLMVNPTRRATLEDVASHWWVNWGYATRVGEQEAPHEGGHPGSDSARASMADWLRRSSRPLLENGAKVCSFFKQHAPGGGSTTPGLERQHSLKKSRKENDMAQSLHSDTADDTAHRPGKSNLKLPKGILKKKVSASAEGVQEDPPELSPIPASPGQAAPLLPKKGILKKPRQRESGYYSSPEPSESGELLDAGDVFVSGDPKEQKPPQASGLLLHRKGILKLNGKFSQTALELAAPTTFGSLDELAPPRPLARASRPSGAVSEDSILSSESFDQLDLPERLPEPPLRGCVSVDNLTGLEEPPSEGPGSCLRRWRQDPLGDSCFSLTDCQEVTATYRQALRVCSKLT", "test": "Inhibition of human recombinant NuaK2 at 500 nM in presence of ATP by radiometric assay relative to control"}, "[3]": {"target": "Casein kinase I isoform gamma-1 (Homo sapiens) (UniProt Q9HCP0)", "sequence (Q9HCP0 whole entry, looked up, canonical isoform)": "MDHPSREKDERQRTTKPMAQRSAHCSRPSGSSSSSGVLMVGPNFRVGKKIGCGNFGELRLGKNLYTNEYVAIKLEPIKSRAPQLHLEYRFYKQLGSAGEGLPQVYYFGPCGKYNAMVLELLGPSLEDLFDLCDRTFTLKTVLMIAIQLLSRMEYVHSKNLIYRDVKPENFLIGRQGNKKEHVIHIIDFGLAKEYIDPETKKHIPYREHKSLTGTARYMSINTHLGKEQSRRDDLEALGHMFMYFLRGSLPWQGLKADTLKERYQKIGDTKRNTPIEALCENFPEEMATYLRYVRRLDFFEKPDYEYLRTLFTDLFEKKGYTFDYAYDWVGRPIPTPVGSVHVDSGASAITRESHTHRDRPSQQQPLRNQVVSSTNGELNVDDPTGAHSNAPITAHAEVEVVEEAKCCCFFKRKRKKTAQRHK", "test": "Inhibition of human recombinant CK1g1 at 15 nM in presence of ATP by radiometric assay relative to control"}, "[4]": {"target": "T3, Dual specificity tyrosine-phosphorylation-regulated kinase 2 (Homo sapiens) (UniProt Q92630)", "T3 sequence (whole entry)": "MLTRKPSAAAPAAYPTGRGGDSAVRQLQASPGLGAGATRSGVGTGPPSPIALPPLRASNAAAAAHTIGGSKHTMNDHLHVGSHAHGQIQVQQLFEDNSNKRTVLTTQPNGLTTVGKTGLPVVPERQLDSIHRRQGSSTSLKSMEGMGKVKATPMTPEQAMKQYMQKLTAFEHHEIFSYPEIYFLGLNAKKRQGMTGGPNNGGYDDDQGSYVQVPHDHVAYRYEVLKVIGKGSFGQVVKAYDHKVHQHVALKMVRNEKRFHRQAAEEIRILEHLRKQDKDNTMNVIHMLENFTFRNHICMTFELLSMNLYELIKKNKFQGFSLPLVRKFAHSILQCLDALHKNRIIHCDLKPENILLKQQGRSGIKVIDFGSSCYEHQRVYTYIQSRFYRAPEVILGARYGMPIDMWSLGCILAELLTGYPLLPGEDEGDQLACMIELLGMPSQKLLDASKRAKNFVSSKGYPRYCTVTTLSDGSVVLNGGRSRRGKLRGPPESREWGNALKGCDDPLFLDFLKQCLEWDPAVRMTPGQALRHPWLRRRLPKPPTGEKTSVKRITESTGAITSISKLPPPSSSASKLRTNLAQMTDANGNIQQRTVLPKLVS", "test": "Inhibition of human recombinant DYRK2 at 15 nM in presence of ATP by radiometric assay relative to control"}, "[5]": {"target": "T4, Serine/threonine-protein kinase STK11 (Homo sapiens) (UniProt Q15831)", "T4 sequence (whole entry)": "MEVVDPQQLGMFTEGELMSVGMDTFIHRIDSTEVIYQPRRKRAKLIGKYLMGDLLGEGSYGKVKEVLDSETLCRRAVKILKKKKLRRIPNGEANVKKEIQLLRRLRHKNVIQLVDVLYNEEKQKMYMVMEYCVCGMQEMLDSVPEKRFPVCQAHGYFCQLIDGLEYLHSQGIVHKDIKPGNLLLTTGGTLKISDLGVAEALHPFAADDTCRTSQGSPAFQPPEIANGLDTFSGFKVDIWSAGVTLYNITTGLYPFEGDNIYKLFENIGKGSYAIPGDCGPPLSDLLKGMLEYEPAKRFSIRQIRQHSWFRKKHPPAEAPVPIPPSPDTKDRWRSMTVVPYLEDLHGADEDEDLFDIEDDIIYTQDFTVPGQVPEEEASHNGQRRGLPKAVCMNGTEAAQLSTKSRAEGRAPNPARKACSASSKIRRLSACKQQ", "test": "Inhibition of human recombinant LKB1 at 15 nM in presence of ATP by radiometric assay relative to control"}, "[6]": {"target": "Serine/threonine-protein kinase N2 (Homo sapiens) (UniProt Q16513)", "sequence (Q16513 whole entry, looked up)": "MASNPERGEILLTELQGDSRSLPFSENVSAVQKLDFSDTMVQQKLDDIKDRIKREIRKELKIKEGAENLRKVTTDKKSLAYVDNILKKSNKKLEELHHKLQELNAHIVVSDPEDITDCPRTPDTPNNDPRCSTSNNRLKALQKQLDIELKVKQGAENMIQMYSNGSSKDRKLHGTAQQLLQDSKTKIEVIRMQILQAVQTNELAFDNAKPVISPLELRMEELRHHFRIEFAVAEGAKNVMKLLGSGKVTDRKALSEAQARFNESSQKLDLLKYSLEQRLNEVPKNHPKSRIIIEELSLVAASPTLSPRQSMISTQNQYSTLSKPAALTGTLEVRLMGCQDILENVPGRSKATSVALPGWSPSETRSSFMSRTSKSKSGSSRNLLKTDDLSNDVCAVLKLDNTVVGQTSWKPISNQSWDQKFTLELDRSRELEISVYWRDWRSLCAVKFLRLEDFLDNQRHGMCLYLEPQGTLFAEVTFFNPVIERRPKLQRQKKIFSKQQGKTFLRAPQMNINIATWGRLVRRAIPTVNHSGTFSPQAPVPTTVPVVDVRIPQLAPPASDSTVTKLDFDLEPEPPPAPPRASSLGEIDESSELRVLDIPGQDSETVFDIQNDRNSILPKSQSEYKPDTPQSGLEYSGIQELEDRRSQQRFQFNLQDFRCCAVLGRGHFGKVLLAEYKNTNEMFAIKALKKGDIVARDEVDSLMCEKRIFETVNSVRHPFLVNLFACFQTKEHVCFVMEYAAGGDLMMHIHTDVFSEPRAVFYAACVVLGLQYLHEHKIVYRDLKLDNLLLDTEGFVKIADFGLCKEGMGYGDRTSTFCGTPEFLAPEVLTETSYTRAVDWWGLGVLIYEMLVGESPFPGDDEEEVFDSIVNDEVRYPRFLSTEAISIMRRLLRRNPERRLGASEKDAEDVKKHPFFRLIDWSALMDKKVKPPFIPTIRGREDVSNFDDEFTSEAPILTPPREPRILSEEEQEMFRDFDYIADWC", "test": "Inhibition of human recombinant PKN2 at 15 nM related to control ULK1"}},
  "data": [
    {"smiles": "O=C(N[C@@H](C1CC1)C(F)(F)F)c1cc(-c2cnn3cc(-c4ccc(F)cc4)cnc23)cs1", "values": [
      {"measurement": "fold change (FC)", "setting": "[1]", "result": 0}
    ]},
    {"smiles": "CNC(=O)c1ccccc1Oc1nc(Nc2cc(OC)c(OC)c(OC)c2)ncc1Br", "values": [
      {"measurement": "inhibition", "setting": "[2]", "result": 64, "unit": "%"}
    ]},
    {"smiles": "CC(C)[C@H](NC(=O)c1cc(-c2cnn3cc(-c4ccc(OCCN5CCCCC5)cc4)cnc23)cs1)C(F)(F)F", "values": [
      {"measurement": "inhibition", "setting": "[3]", "result": 0, "unit": "%"},
      {"measurement": "inhibition", "setting": "[4]", "result": 8, "unit": "%"},
      {"measurement": "inhibition", "setting": "[5]", "result": 0, "unit": "%"},
      {"measurement": "fold change (FC)", "setting": "[6]", "result": 0}
    ]}
  ]
}
